# Results reported in the Kinase Knowledgebase extract (Sharma et al. 2016).
# Molecular target: EGFR (UniProt P00533)
# Sequence (P00533 whole entry, looked up): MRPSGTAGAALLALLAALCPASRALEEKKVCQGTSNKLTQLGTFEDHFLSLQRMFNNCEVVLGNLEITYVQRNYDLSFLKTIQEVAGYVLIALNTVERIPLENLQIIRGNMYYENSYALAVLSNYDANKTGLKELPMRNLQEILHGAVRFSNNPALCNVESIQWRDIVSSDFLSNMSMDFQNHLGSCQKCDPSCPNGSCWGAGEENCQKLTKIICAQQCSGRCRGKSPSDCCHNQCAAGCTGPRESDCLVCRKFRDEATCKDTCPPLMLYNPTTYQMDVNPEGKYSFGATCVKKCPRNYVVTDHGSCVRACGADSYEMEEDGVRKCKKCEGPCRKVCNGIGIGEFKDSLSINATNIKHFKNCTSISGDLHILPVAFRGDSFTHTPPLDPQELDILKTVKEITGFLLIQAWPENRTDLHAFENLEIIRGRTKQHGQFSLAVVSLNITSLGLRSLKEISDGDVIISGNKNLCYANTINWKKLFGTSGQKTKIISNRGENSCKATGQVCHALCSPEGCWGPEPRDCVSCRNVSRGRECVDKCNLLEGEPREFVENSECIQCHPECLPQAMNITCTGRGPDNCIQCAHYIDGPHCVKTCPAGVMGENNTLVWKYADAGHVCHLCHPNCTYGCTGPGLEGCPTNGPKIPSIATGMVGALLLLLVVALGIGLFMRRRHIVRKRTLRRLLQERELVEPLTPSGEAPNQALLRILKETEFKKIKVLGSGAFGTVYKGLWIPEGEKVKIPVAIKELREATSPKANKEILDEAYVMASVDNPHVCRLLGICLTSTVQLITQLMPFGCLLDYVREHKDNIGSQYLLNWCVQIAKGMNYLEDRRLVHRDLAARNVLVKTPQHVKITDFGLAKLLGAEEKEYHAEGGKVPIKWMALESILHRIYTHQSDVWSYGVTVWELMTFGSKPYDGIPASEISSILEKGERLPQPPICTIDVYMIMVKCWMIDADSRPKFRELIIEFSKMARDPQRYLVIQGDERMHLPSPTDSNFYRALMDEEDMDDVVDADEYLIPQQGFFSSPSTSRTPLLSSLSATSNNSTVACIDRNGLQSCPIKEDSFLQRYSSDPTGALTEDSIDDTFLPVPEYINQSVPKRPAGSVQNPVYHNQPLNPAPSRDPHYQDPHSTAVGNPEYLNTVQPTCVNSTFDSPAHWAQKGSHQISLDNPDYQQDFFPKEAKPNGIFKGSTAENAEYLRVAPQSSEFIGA
row,Compound,IC50 [µg/mL]
1,CC(C)(C)OC(=O)NCc1ccc(Nc2ncnc(Nc3cc(-c4ccco4)n[nH]3)n2)cc1,0.4 to 2.4
2,COc1ccc2c(c1)nc(Nc1ccc3[nH]ccc3c1)n2-c1ncnc(Nc2cc(OC)c(OC)c(OC)c2)n1.COc1ccc2nc(Nc3ccc4[nH]ccc4c3)n(-c3ncnc(Nc4cc(OC)c(OC)c(OC)c4)n3)c2c1,> 4.5
3,CCN(CC)C(=O)C1CCCN(c2ncnc(Nc3cc(OC)c(OC)c(OC)c3)n2)C1 (stereo not drawn),> 4.5
4,COCCCNc1ncnc(N2CCCc3cc(C)ccc32)n1,3.5 to 4.5
5,COc1cccc(-c2ncnc(Nc3cc(OC)c(OC)c(OC)c3)n2)c1,2.4 to 3.5
6,COC(=O)c1cccc(Nc2ncnc(-n3c(Cl)nc4ccccc43)n2)c1,2.4 to 3.5
7,COc1cc(Nc2ncnc(-n3c(NCc4ccc(N(C)C)cc4)nc4ccccc43)n2)cc(OC)c1OC,2.4 to 3.5
8,COc1cc(Nc2ncnc(-n3c(Nc4cccc5cccnc45)nc4ccccc43)n2)cc(OC)c1OC,> 4.5
9,COc1ccc(Nc2ncnc(NCCCOC(C)C)n2)cc1OC,> 4.5
10,Cc1ccc2c(c1)CCCN2c1ncnc(Nc2ccc3c(c2)C(=O)OC3)n1,< 0.4
11,COc1cc(Nc2ncnc(N[C@H](CO)c3ccccc3)n2)cc(OC)c1OC,0.4 to 2.4
12,CC(C)Nc1ncccc1-c1ncnc(Nc2ccc(N3CCOCC3)cc2)n1,0.4 to 2.4
13,COc1ccc(Nc2ncnc(Nc3ccccc3C)n2)cc1OC,< 0.4
14,COc1cc(Nc2ncnc(Nc3ccc4[nH]ncc4c3)n2)cc(OC)c1OC,< 0.4
15,CCOC(=O)Cc1cn(-c2ncnc(Nc3cc(OC)c(OC)c(OC)c3)n2)c2ccccc12,> 4.5
16,COc1cc(Nc2ncnc(Nc3nnc(-c4ccccc4)[nH]3)n2)cc(OC)c1OC,> 4.5
17,FC(F)C(F)(F)Oc1cccc(Nc2ncnc(-c3ccnc(Cl)c3)n2)c1,> 4.5
18,CCN(CC)CCOc1ccc(Nc2ncnc(Nc3cc(OC)c(OC)c(OC)c3)n2)cc1OC,0.4 to 2.4
19,COc1ccc(Nc2ncnc(Nc3cc(OC)c(OC)c(OC)c3)n2)cc1O,< 0.4
20,COc1cc(Nc2ncnc(Nc3cc(OC)c(OC)c(OC)c3)n2)cc(OC)c1OC,3.5 to 4.5
21,COc1cc(Nc2ncnc(-n3ccc4ccc(Cl)cc43)n2)cc(OC)c1OC,3.5 to 4.5
22,COc1cc(Nc2ncnc(Nc3cccc4cccnc34)n2)cc(OC)c1OC,> 4.5
23,CN(c1cccc(Cl)c1)c1ncnc(Nc2ccc(F)c(C(F)(F)F)c2)n1,0.4 to 2.4
24,COc1cc(Nc2ncnc(N3CCCC4CCCCC43)n2)cc(OC)c1OC (stereo not drawn),< 0.4
25,COC(=O)c1ccc(-c2cc(Nc3ncnc(NCCCO)n3)[nH]n2)cc1,> 4.5
26,CCN(CC)CCOc1ccc(Nc2ncnc(-n3c(N)nc4ccccc43)n2)cc1OC,> 4.5
27,CC(C)Nc1ncccc1-c1ncnc(Nc2cccc(CO)c2)n1,3.5 to 4.5

row,Compound,IC50 [µg/mL]
1,COc1cc(Nc2ncnc(-n3c(NCC(C)C)nc4ccccc43)n2)cc(OC)c1OC,> 4.5
2,COC(=O)c1ccc(Nc2ncnc(-c3ccccc3)n2)cc1,> 4.5
3,CN(c1cccc(Cl)c1)c1ncnc(Nc2ccc(OC(F)(F)F)cc2)n1,0.4 to 2.4
4,COc1cc(Nc2ncnc(-n3c(N)nc4ccccc43)n2)ccc1OCCN1CCOCC1,> 4.5
5,COc1cccc(Nc2nc3ccccc3n2-c2ncnc(Nc3cc(OC)c(OC)c(OC)c3)n2)c1,> 4.5
6,OCc1cccc(Nc2ncnc(-c3cccnc3Nc3ccccc3)n2)c1,0.4 to 2.4
7,COC(=O)c1ccc(-c2cc(Nc3ncnc(NCc4cccnc4)n3)[nH]n2)cc1,> 4.5
8,O=c1[nH]c2ccccc2n1-c1ncnc(Nc2cc(C(F)(F)F)cc(C(F)(F)F)c2)n1,> 4.5
9,COCCOc1ccc(Nc2ncnc(Nc3ccc(C)c(F)c3)n2)cc1OCCOC,> 4.5
10,Nc1nc2ccccc2n1-c1ncnc(Nc2ccc(Cl)c(Cl)c2)n1,0.4 to 2.4
11,CN(c1cccc(Cl)c1)c1ncnc(Nc2ccc3nn(C)cc3c2)n1,< 0.4
12,Cc1ccc2c(c1)CCCN2c1ncnc(NCC2CCCO2)n1 (stereo not drawn),> 4.5
13,COc1cc(Nc2ncnc(N3CCCc4ccccc43)n2)cc(OC)c1OC,< 0.4
14,Fc1ccc(Nc2ncnc(Nc3ccc4cn[nH]c4c3)n2)cc1Cl,< 0.4
15,COc1cc(Nc2ncnc(N3CCN(C(=O)OC(C)(C)C)CC3)n2)cc(OC)c1OC,> 4.5
16,COC(=O)c1cccc(Nc2ncnc(-n3c(NCc4ccccc4)nc4ccccc43)n2)c1,0.4 to 2.4
17,CN(c1cccc(Cl)c1)c1ncnc(NCCOCCO)n1,> 4.5
18,COc1cc(Nc2ncnc(Nc3cccc(C(C)=O)c3)n2)cc(OC)c1OC,0.4 to 2.4
19,COc1cc(Nc2ncnc(-c3cccnc3NCCCN)n2)cc(OC)c1OC,> 4.5
20,COc1cc(Nc2ncnc(Nc3ccc(Oc4ccccc4)cc3)n2)cc(OC)c1OC,< 0.4
21,COc1cc(Nc2ncnc(-n3c(NCc4ccccn4)nc4ccccc43)n2)cc(OC)c1OC,> 4.5
22,COc1cc(Nc2ncnc(Nc3ccc4nn(C)cc4c3)n2)cc(OC)c1OC,0.4 to 2.4
23,COc1cc(Nc2ncnc(Nc3cc(-c4cccc(Cl)c4)n[nH]3)n2)cc(OC)c1OC,0.4 to 2.4
24,COC(=O)c1sccc1Nc1ncnc(Nc2cc(OC)c(OC)c(OC)c2)n1,> 4.5
25,COc1cc(Nc2ncnc(-c3ccc(NCCCN)nc3)n2)cc(OC)c1OC,> 4.5
26,CN(c1cccc(Cl)c1)c1ncnc(NCCN2CCCCC2)n1,2.4 to 3.5
